From patent US10214508B2, “Nitrogen-containing heterocyclic compound” (Takeda Pharmaceutical Company Limited, priority 2014, dated 2019)

Columns and labels:
[1] = target: T1, human M1 receptor (hCHRM1) (Homo sapiens, UniProt P11229); test: Measurement of M1 receptor positive allosteric modulator (M1PAM) activity, calcium fluorescence (FLIPRtetra); format: cell-based; conditions: 10 μM test compound with acetylcholine at EC20 (final 0.6-0.8 nM); 100% = acetylcholine 1 μM, 0% = DMSO; CHO-K1 cells expressing hCHRM1
T1 construct: expressed in transfected cells
T1 sequence (P11229 1-460): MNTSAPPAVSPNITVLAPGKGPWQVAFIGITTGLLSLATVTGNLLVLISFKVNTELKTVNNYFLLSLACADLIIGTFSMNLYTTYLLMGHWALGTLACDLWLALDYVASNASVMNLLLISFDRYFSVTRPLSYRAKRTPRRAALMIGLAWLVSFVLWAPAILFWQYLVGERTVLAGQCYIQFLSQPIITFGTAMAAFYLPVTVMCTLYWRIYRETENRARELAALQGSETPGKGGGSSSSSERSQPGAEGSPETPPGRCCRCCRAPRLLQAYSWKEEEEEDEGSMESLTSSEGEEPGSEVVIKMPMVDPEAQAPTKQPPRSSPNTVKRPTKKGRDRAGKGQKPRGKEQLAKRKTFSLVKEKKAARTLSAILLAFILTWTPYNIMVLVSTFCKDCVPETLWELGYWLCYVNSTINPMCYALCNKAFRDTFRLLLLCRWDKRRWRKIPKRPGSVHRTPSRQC
How it was run: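 CHO-K1 cells stably expressing hM1 were Fluo-4-loaded; compound added with acetylcholine at EC20 (0.6-0.8 nM final), calcium fluorescence read 1 min on FLIPRtetra. Activity scaled between DMSO (0%) and 1 μM acetylcholine (100%); inflection point of concentration–response reported as IP.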

[2] = tested on: IP1 production; test: Measurement of myo-inositol 1 phosphate (IP1) in hippocampi after oral administration; format: in vivo, male Long-Evans rats; conditions: rat hippocampus, relative to Vehicle administration group as 100%
Protocol: Measurement of Myo-Inositol 1 Phosphate (IP1)
Animals used were male Long-Evans rats. They were used after acclimation for at least 1 week. Test compounds were suspended in 0.5% (w/v) aqueous methylcellulose solution, and the suspension was orally administered to the rats. After a given time, lithium chloride was dissolved in saline and subcutaneously administered into the rats. After a given time, their bilateral hippocampi were isolated from the rats, and the wet weight thereof was measured. The isolated hippocampi were homogenized with HEPES buffer, followed by centrifugation. The IP1 and protein concentrations in the supernatant were measured by IP-One HTRF(R) assay kit (Cisbio Bioassays) and BCA protein assay kit (Thermo Scientific), respectively. The level of the IP1 production was expressed as the ratio of the concentration of IP1 to that of protein. The increase rate of the IP1 production was shown as a relative value when Vehicle administration group as 100%.

[3] = tested on: Scopolamine-induced memory deficits models; test: Novel object recognition test; format: in vivo, male Long-Evans rats; conditions: 2 hours before acquisition trial, scopolamine 0.1 mg/kg s.c., mean±standard error
Protocol: Novel Object Recognition Test Novel object recognition test is comprised of two trials called the acquisition and the retention trials. Scopolamine-induced memory deficits models were used for the test, and animals used were male Long-Evans rats (7-week-old). On the day before the test, for acclimation, the rats were allowed to freely move about the test box (40×40×50 cm) for 10 minutes. On the test day, the rats were acclimated to the test room for about for 1 hr prior to the test. The test compounds were orally administered to the rats in a single dose 2 hours before the acquisition trial. For induction of learning and memory deficits, scopolamine (0.1 mg/kg) was subcutaneously administered into the rats for 30 min before the acquisition trial. For the acquisition trial, two identical objects (A1, A2) were placed in the test box. The rats were put in the test box for 3 min, and the duration exploring each object was measured. The retention trial was performed for 4 hr after the acquisition trial. For the retention trial, one familiar object (A3) used for the acquisition trial and one novel object (B) having a different shape from A3 were placed in the test box. After setting the objects, the rats were introduced into the test box and retention trial was performed for 3 min. The duration for exploring each object in the acquisition trial and the retention trial was measured, and the exploration rate of novel object was calculated. The exploration rate of novel object was expressed as (the duration exploring the novel object)/[(the duration exploring the novel object)+(the duration exploring the familiar object)]×100(%) at mean±standard error.

activity (%) at 10 μM [1] | Structure (SMILES) | increase rate (%) of the IP1 production ([2]; 10 mg/kg) | exploration rate of novel object (%) ([3]; 10 mg/kg oral, control group 69.26±2.87%, solvent-scopolamine group 55.27±3.48%) | exploration rate of novel object (%) ([3]; 3 mg/kg oral, control group 66.74±3.01%, solvent-scopolamine group 47.48±3.66%) | increase rate (%) of the IP1 production ([2]; 3 mg/kg) | exploration rate of novel object (%) ([3]; 10 mg/kg oral, control group 66.74±3.01%, solvent-scopolamine group 47.48±3.66%)
86% | Cc1cnc(C(=O)N[C@H]2CCC[C@@H]2O)cc1Cc1ccc(-c2ccn(C)n2)cc1 [Example 1, N-((1S,2S)-2-hydroxycyclopentyl)-5-methyl-4-(4-(1-methyl-1H-pyrazol-3-yl)benzyl)pyridine-2-carboxamide] | 38% | 64.59±2.59% | – | – | –
105% | Cc1nc(C(=O)N[C@H]2CCC[C@@H]2O)cc(Cc2ccc(-c3ccn(C)n3)cc2)c1C [Example 72, N-((1S,2S)-2-hydroxycyclopentyl)-5,6-dimethyl-4-(4-(1-methyl-1H-pyrazol-3-yl)benzyl)pyridine-2-carboxamide] | 70% | – | 53.16±2.80% | – | –
103% | Cc1nc(C(=O)N[C@H]2CCCC[C@@H]2O)cc(Cc2ccc(-c3ccn(C)n3)nc2)c1C [Example 74, N-((1S,2S)-2-hydroxycyclohexyl)-5,6-dimethyl-4-((6-(1-methyl-1H-pyrazol-3-yl)pyridin-3-yl)methyl)pyridine-2-carboxamide] | – | – | – | 22% | 55.14±1.48%
106% | Cc1nc(C(=O)N[C@H]2CCC[C@@H]2O)cc(Cc2ccc(-c3ccn(C)n3)nc2)c1C [Example 117, N-((1S,2S)-2-hydroxycyclopentyl)-5,6-dimethyl-4-((6-(1-methyl-1H-pyrazol-3-yl)pyridin-3-yl)methyl)pyridine-2-carboxamide] | – | – | – | – | –
